According to US10696707B2, “Polyene macrolide derivative” (Shionogi & Co., Ltd., priority 2014, dated 2020):
Converted amounts (≈) assume the structure as drawn. Where two headings read alike, the source gives them in different places.

Assays:
Type in all cases: cell-based
[1] = system: C. albicans ATCC90028; assay: Antifungal activity test, MIC by broth microdilution (CLSI M27-A3); details: C. albicans ATCC90028, 35° C., 24-48 hours
Protocol: (§1) The Minimum Inhibitory Concentration (MIC) values of the present compound against yeast and filamentous fungi were determined by broth microdilution assay according to the Clinical Laboratory Standards Institute (CLSI) guidelines outlined in documents M27-A3 and M38-A2. The medium used in the assay consisted of RPMI1640 (with glutamine, without bicarbonate) with 2% glucose and 0.165 mol/L morpholinepropanesulfonic acid (MOPS) with pH adjusted to 7.0 using 1 mol/L sodium hydroxide. The present compound was dissolved in dimethyl sulfoxide (DMSO). A series of two-fold dilutions were prepared in DMSO, and then 2 μL of the diluted compound was added to each well in 96-well sterile plates. Each inoculum was prepared by diluting a suspension of Candida spp. or a conidia suspension of Aspergillus spp. suspended in sterile saline solution, and then 200 μL was added to each well to a predetermined concentration using RPMI/MOPS (final concentration for each solution: approximately 1×10^3 cells/mL and approximately 1×10^4 CFU/mL). Plates of Candida spp. and Aspergillus spp. were incubated at 35° C. for 24-48 hours. The MIC was defined as the lowest concentration giving 100% inhibition compared to the growth control.

[2] = system: A. flavus ATCC204304; assay: Antifungal activity test, MIC by broth microdilution (CLSI M38-A2); details: A. flavus ATCC204304, 35° C., 24-48 hours
Protocol: as §1

[3] = system: A. fumigatus ATCC204305; assay: as above; details: A. fumigatus ATCC204305, 35° C., 24-48 hours
Protocol: as §1

[4] = broth microdilution, 100% inhibition
[5] = lowest concentration giving 100% inhibition

C[C@@H]1[C@H](O)[C@@H](C)/C=C/C=C/C=C/C=C/C=C/C=C/C=C/[C@H](O[C@@H]2O[C@H](C)[C@@H](O)[C@H](N)[C@@H]2O)C[C@@H]2O[C@](O)(C[C@@H](O)C[C@@H](O)[C@H](O)CC[C@@H](O)C[C@@H](O)CC(=O)O[C@H]1C)C[C@H](O)[C@H]2NC(=O)N(O)CCO [I-274]
MIC [1, 4]: 0.5 µg/mL (≈ 0.501 µM)
MIC [2, 4]: 0.5 µg/mL (≈ 0.501 µM)
MIC [3, 4]: 0.5 µg/mL (≈ 0.501 µM)

C[C@@H]1[C@H](O)[C@@H](C)/C=C/C=C/C=C/C=C/C=C/C=C/C=C/[C@H](O[C@@H]2O[C@H](C)[C@@H](O)[C@H](N)[C@@H]2O)C[C@@H]2O[C@](O)(C[C@@H](O)C[C@@H](O)[C@H](O)CC[C@@H](O)C[C@@H](O)CC(=O)O[C@H]1C)C[C@H](O)[C@H]2NC(=O)NCC(N)=O [I-90]
MIC [1, 4]: 0.25 µg/mL (≈ 0.251 µM)
MIC [2, 4]: 0.5 µg/mL (≈ 0.502 µM)
MIC [3, 4]: 0.5 µg/mL (≈ 0.502 µM)

C[C@@H]1[C@H](O)[C@@H](C)/C=C/C=C/C=C/C=C/C=C/C=C/C=C/[C@H](O[C@@H]2O[C@H](C)[C@@H](O)[C@H](N)[C@@H]2O)C[C@@H]2O[C@](O)(C[C@@H](O)C[C@@H](O)[C@H](O)CC[C@@H](O)C[C@@H](O)CC(=O)O[C@H]1C)C[C@H](O)[C@H]2NC(=O)N1CC(O)C1 [I-166]
MIC [1, 4]: 0.25 µg/mL (≈ 0.251 µM)
MIC [2, 4]: 0.5 µg/mL (≈ 0.503 µM)
MIC [3, 4]: 1 µg/mL (≈ 1.01 µM)

C[C@@H]1[C@H](O)[C@@H](C)/C=C/C=C/C=C/C=C/C=C/C=C/C=C/[C@H](O[C@@H]2O[C@H](C)[C@@H](O)[C@H](N)[C@@H]2O)C[C@@H]2O[C@](O)(C[C@@H](O)C[C@@H](O)[C@H](O)CC[C@@H](O)C[C@@H](O)CC(=O)O[C@H]1C)C[C@H](O)[C@H]2NC(=O)N1C[C@H](O)CC1C(=O)O (stereo partly drawn) [I-230]
MIC [1, 4]: 0.5 µg/mL (≈ 0.475 µM)
MIC [2, 4]: 0.5 µg/mL (≈ 0.475 µM)
MIC [3, 4]: 1 µg/mL (≈ 0.95 µM)

C[C@@H]1[C@H](O)[C@@H](C)/C=C/C=C/C=C/C=C/C=C/C=C/C=C/[C@H](O[C@@H]2O[C@H](C)[C@@H](O)[C@H](NC(=N)N)[C@@H]2O)C[C@@H]2O[C@](O)(C[C@@H](O)C[C@@H](O)[C@H](O)CC[C@@H](O)C[C@@H](O)CC(=O)O[C@H]1C)C[C@H](O)[C@H]2NC(=O)NNC(N)=O [I-330]
MIC [1, 5]: 0.25 µg/mL (≈ 0.241 µM)
MIC [2, 5]: 1 µg/mL (≈ 0.963 µM)
MIC [3, 5]: 1 µg/mL (≈ 0.963 µM)

C[C@@H]1[C@H](O)[C@@H](C)/C=C/C=C/C=C/C=C/C=C/C=C/C=C/[C@H](O[C@@H]2O[C@H](C)[C@@H](O)[C@H](N)[C@@H]2O)C[C@@H]2O[C@](O)(C[C@@H](O)C[C@@H](O)[C@H](O)CC[C@@H](O)C[C@@H](O)CC(=O)O[C@H]1C)C[C@H](O)[C@H]2NC(N)=O [I-36]
MIC ([1]; Candida albicans, broth microdilution, 100% inhibition, read-out: MIC): 0.25 µg/mL (≈ 0.266 µM)
MIC ([2]; Aspergillus flavus, broth microdilution, 100% inhibition, read-out: MIC): 1 µg/mL (≈ 1.07 µM)
MIC ([3]; Aspergillus fumigatus, broth microdilution, 100% inhibition, read-out: MIC): 1 µg/mL (≈ 1.07 µM)

C[C@@H]1[C@H](O)[C@@H](C)/C=C/C=C/C=C/C=C/C=C/C=C/C=C/[C@H](O[C@@H]2O[C@H](C)[C@@H](O)[C@H](N)[C@@H]2O)C[C@@H]2O[C@](O)(C[C@@H](O)C[C@@H](O)[C@H](O)CC[C@@H](O)C[C@@H](O)CC(=O)O[C@H]1C)C[C@H](O)[C@H]2NC(=O)N(O)CC(=O)O [I-276]
MIC [1, 4]: 0.5 µg/mL (≈ 0.494 µM)
MIC [2, 4]: 0.5 µg/mL (≈ 0.494 µM)
MIC [3, 4]: 0.5 µg/mL (≈ 0.494 µM)

CC1C=CC=CC=CC=CC=CC=CC=CC(OC2OC(C)C(O)C(N)C2O)CC2OC(O)(CC(O)CC(O)C(O)CCC(O)CC(O)CC(=O)OC(C)C(C)C1O)CC(O)C2NC(=O)NCC(N)CCO (stereo not drawn) [I-163]
MIC [1, 4]: 0.25 µg/mL (≈ 0.244 µM)
MIC [2, 4]: 1 µg/mL (≈ 0.975 µM)
MIC [3, 4]: 1 µg/mL (≈ 0.975 µM)

CNC(=O)N[C@H]1[C@@H]2C[C@@H](O[C@@H]3O[C@H](C)[C@@H](O)[C@H](N(CCCN)CCCN)[C@@H]3O)/C=C/C=C/C=C/C=C/C=C/C=C/C=C/[C@H](C)[C@@H](O)[C@@H](C)[C@H](C)OC(=O)C[C@H](O)C[C@H](O)CC[C@@H](O)[C@H](O)C[C@H](O)C[C@](O)(C[C@@H]1O)O2 [I-383]
MIC [1, 5]: 0.25 µg/mL (≈ 0.234 µM)
MIC [2, 5]: 1 µg/mL (≈ 0.938 µM)
MIC [3, 5]: 1 µg/mL (≈ 0.938 µM)

C[C@@H]1[C@H](O)[C@@H](C)/C=C/C=C/C=C/C=C/C=C/C=C/C=C/[C@H](O[C@@H]2O[C@H](C)[C@@H](O)[C@H](NC(=N)NO)[C@@H]2O)C[C@@H]2O[C@](O)(C[C@@H](O)C[C@@H](O)[C@H](O)CC[C@@H](O)C[C@@H](O)CC(=O)O[C@H]1C)C[C@H](O)[C@H]2NC(=O)NNC(=O)[C@H](O)CO [I-380]
MIC [1, 5]: 0.5 µg/mL (≈ 0.455 µM)
MIC [2, 5]: 0.5 µg/mL (≈ 0.455 µM)
MIC [3, 5]: 1 µg/mL (≈ 0.91 µM)
